We go through five compounds from US12252524B2, “GIP/GLP1 co-agonist compounds” (Eli Lilly and Company, priority 2018, dated 2025).

SMILES strings stand for the structures. Numbered stars: 1 amine (or outer) side, 2 acyl side, 3 side chain; on linkers, the order of the positions; unused ones are H or OH. Square brackets hold non-standard residues; d marks the D form. Side chains are listed from the residue outwards. Peptide text beside a SMILES is read from it. * marks the point of attachment. C20 diacid = O=C(O)CCCCCCCCCCCCCCCCCCC(=O)*; γGlu = O=C(O)[C@H](CCC(=O)[*:2])N[*:1]; AEEA = NCCOCCOCC(=O)O; Aib = CC(C)(N)C(=O)O

One may read the Ki as a dissociation constant, usually derived from enzyme kinetics or from competition with a known ligand. The term EC50 denotes the concentration needed to bring the measured effect to its halfway point.

In test [1] the target is T1, human Gcg receptor (Homo sapiens, UniProt P47871).
T1 construct: expressed in transfected cells; crude membranes
T1 sequence (P47871 26-477): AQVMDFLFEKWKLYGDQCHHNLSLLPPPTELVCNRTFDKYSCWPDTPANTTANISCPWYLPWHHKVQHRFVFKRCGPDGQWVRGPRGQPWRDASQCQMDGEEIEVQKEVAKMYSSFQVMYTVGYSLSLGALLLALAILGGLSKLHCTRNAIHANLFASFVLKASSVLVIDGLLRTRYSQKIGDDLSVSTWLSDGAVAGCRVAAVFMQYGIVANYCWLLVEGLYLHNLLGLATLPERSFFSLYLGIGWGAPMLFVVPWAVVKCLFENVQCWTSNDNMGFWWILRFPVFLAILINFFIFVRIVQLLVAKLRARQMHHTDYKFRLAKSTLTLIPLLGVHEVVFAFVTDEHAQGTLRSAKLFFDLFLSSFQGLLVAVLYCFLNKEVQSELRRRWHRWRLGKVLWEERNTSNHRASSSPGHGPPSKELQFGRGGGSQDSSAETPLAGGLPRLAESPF
Nature of the test: [125I]-Glucagon binding (SPA), human Gcg receptor. Conditions: read-out: hGLcgR Ki, nM (SEM, n). Put shortly: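 Crude membranes from cells expressing the receptor, prepared by hypotonic lysis in 50 mM Tris HCl pH 7.5 with protease inhibitors, homogenization and differential centrifugation, were used in a WGA-bead SPA. Binding buffer: 25 mM HEPES pH 7.4, 2.5 mM CaCl2, 1 mM MgCl2, bacitracin, Tween-20.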

Test [2] concerns the target T2, human GIP receptor (Homo sapiens, UniProt P48546).
T2 construct: expressed in transfected cells; crude membranes
T2 sequence (P48546 22-466): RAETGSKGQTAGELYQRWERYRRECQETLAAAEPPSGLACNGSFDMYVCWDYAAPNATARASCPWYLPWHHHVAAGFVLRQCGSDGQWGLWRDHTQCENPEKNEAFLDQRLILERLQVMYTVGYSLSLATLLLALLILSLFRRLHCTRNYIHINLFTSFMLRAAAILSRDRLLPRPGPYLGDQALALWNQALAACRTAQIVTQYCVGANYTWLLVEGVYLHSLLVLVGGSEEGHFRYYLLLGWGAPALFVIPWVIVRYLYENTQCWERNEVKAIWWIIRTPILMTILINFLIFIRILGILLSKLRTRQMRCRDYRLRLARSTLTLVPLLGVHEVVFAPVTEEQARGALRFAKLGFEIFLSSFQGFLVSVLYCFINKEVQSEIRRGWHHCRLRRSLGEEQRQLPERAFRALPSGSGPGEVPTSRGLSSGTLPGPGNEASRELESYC
Nature of the test: [125I]-GIP binding (SPA), human GIP receptor. Conditions: read-out: hGIPR Ki, nM (SEM, n).

The target of test [3] is human GLP-1 receptor (GLP-1R) (Homo sapiens, UniProt P43220). Nature of the test: cAMP pharmacological functional assay in presence of casein, hGLP-1R. It counts as cell-based. Particulars: HEK293 cells expressing hGLP-1R, 0.1% Casein, geometric mean; read-out: hGLP1R cAMP Rel EC50 nM (SEM, n).
Chain of human GLP-1 receptor (GLP-1R) (P43220 24-463): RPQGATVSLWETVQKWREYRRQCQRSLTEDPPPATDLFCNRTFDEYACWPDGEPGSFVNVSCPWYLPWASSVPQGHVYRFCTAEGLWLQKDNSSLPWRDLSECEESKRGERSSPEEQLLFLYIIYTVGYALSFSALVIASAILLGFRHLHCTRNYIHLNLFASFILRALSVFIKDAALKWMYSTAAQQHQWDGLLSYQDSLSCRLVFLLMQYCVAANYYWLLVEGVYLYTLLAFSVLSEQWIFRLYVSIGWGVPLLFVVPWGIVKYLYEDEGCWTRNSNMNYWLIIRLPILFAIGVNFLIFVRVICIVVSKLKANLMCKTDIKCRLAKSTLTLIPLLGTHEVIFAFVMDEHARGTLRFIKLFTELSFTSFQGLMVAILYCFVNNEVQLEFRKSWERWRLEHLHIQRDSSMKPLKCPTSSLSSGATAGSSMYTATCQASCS
The target of test [4] is T3, gastric inhibitory peptide receptor (GIPR) (Homo sapiens, UniProt P48546).
T3 sequence (P48546 22-466): T2 sequence (P48546 22-466)
Nature of the test: cAMP pharmacological functional assay in presence of casein, hGIPR. It counts as cell-based. Particulars: HEK293 cells expressing hGIPR, 0.1% Casein, geometric mean; read-out: hGIPR cAMP Rel EC50 nM (SEM, n).

Test [5] deals with human GLP-1R (Homo sapiens, UniProt P43220). Nature of the test: [125I]-GLP-1 binding (SPA), human GLP-1 receptor. Conditions: read-out: hGLP1R Ki, (nM) (SEM, n). On the set-up: expressed in transfected cells; crude membranes. Summed up: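 Frozen cell pellets are lysed on ice in hypotonic Tris buffer, pH 7.5, homogenized, and centrifuged to a membrane pellet resuspended at about 1 to 3 mg/mL. Binding is then measured in HEPES-based buffer at pH 7.4, and curves are fitted to give IC50 and Ki.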
Chain of human GLP-1R (P43220 24-463): as above

Take `CC[C@H](C)[C@H](NC(=O)[C@H](CCCCN)NC(=O)[C@H](CC(=O)O)NC(=O)[C@H](CC(C)C)NC(=O)[C@H](CC(C)C)NC(=O)[C@@H](NC(=O)[C@H](CO)NC(=O)[C@H](Cc1ccc(O)cc1)NC(=O)[C@H](CC(=O)O)NC(=O)[C@H](CO)NC(=O)[C@@H](NC(=O)[C@H](Cc1ccccc1)NC(=O)[C@@H](NC(=O)CNC(=O)[C@H](CCC(=O)O)NC(=O)C(C)(C)NC(=O)[C@@H](N)Cc1ccc(O)cc1)[C@@H](C)O)[C@@H](C)O)[C@@H](C)CC)C(=O)N[C@@H](C)C(=O)N[C@@H](CCC(N)=O)C(=O)NC(C)(C)C(=O)N[C@@H](C)C(=O)N[C@@H](Cc1ccccc1)C(=O)N[C@H](C(=O)N[C@@H](CCC(=O)O)C(=O)N[C@@H](Cc1ccc(O)cc1)C(=O)N[C@@H](CC(C)C)C(=O)N[C@H](C(=O)N[C@@H](CCC(=O)O)C(=O)NCC(=O)N[C@@H](CCCCNC(=O)COCCOCCNC(=O)COCCOCCNC(=O)CC[C@H](NC(=O)CCCCCCCCCCCCCCCCCCC(=O)O)C(=O)O)C(=O)N1CCC[C@H]1C(=O)N[C@@H](CO)C(=O)N[C@@H](CO)C(=O)NCC(=O)N[C@@H](C)C(=O)N1CCC[C@H]1C(=O)N1CCC[C@H]1C(=O)N1CCC[C@H]1C(=O)N[C@@H](CO)C(N)=O)[C@@H](C)CC)[C@@H](C)CC` [Example 39] (H-Y[Aib]EGTFTSDYSILLDKIAQ[Aib]AFIEYLIEGK([AEEA-AEEA-γGlu-C20 diacid])PSSGAPPPS-NH2): the inhibitory constant (Ki) in test [1] was determined as 161 nM; in test [2], 0.0499 nM; in test [5], 16.8 nM. For the same compound, the values for the concentration for a half-maximal effect (EC50) in test [3] and in test [4] were 1.92 nM and 0.133 nM, respectively.
Taken in the same sequence, the figures for `CC[C@H](C)[C@H](NC(=O)[C@H](CCCCN)NC(=O)[C@H](CC(=O)O)NC(=O)[C@H](CC(C)C)NC(=O)[C@H](CC(C)C)NC(=O)[C@@H](NC(=O)[C@H](CO)NC(=O)[C@H](Cc1ccc(O)cc1)NC(=O)[C@H](CC(=O)O)NC(=O)[C@H](CO)NC(=O)[C@@H](NC(=O)[C@H](Cc1ccccc1)NC(=O)[C@@H](NC(=O)CNC(=O)[C@H](CCC(=O)O)NC(=O)C(C)(C)NC(=O)[C@@H](N)Cc1ccc(O)cc1)[C@@H](C)O)[C@@H](C)O)[C@@H](C)CC)C(=O)N[C@@H](C)C(=O)N[C@@H](CCC(N)=O)C(=O)NC(C)(C)C(=O)N[C@@H](C)C(=O)N[C@@H](Cc1ccccc1)C(=O)N[C@H](C(=O)N[C@@H](CCC(=O)O)C(=O)N[C@@H](Cc1ccc(O)cc1)C(=O)N[C@@H](CC(C)C)C(=O)N[C@H](C(=O)N[C@@H](CCC(=O)O)C(=O)NCC(=O)NCC(=O)N[C@@H](CCCCNC(=O)COCCOCCNC(=O)COCCOCCNC(=O)CC[C@H](NC(=O)CCCCCCCCCCCCCCCCCCC(=O)O)C(=O)O)C(=O)N[C@@H](CO)C(=O)N[C@@H](CO)C(=O)NCC(=O)N[C@@H](C)C(=O)N1CCC[C@H]1C(=O)N1CCC[C@H]1C(=O)N1CCC[C@H]1C(=O)N[C@@H](CO)C(N)=O)[C@@H](C)CC)[C@@H](C)CC` [Example 40] (H-Y[Aib]EGTFTSDYSILLDKIAQ[Aib]AFIEYLIEGGK([AEEA-AEEA-γGlu-C20 diacid])SSGAPPPS-NH2) were 150 nM, 0.0345 nM, 7.56 nM, 0.746 nM and 0.136 nM.
Taken in the same sequence, the figures for `CC[C@H](C)[C@H](NC(=O)[C@H](CCCCN)NC(=O)[C@H](CC(=O)O)NC(=O)[C@H](CC(C)C)NC(=O)[C@H](CC(C)C)NC(=O)[C@@H](NC(=O)[C@H](CO)NC(=O)[C@H](Cc1ccc(O)cc1)NC(=O)[C@H](CC(=O)O)NC(=O)[C@H](CO)NC(=O)[C@@H](NC(=O)[C@H](Cc1ccccc1)NC(=O)[C@@H](NC(=O)CNC(=O)[C@H](CCC(=O)O)NC(=O)C(C)(C)NC(=O)[C@@H](N)Cc1ccc(O)cc1)[C@@H](C)O)[C@@H](C)O)[C@@H](C)CC)C(=O)N[C@@H](C)C(=O)N[C@@H](CCC(N)=O)C(=O)NC(C)(C)C(=O)N[C@@H](C)C(=O)N[C@@H](Cc1ccccc1)C(=O)N[C@H](C(=O)N[C@@H](CCC(=O)O)C(=O)N[C@@H](Cc1ccc(O)cc1)C(=O)N[C@@H](CC(C)C)C(=O)N[C@H](C(=O)N[C@@H](CCC(=O)O)C(=O)NCC(=O)NCC(=O)N1CCC[C@H]1C(=O)N[C@@H](CCCCNC(=O)COCCOCCNC(=O)COCCOCCNC(=O)CC[C@H](NC(=O)CCCCCCCCCCCCCCCCCCC(=O)O)C(=O)O)C(=O)N[C@@H](CO)C(=O)NCC(=O)N[C@@H](C)C(=O)N1CCC[C@H]1C(=O)N1CCC[C@H]1C(=O)N1CCC[C@H]1C(=O)N[C@@H](CO)C(N)=O)[C@@H](C)CC)[C@@H](C)CC` [Example 41] (H-Y[Aib]EGTFTSDYSILLDKIAQ[Aib]AFIEYLIEGGPK([AEEA-AEEA-γGlu-C20 diacid])SGAPPPS-NH2) were 165 nM, 0.0551 nM, 13.4 nM, 0.96 nM and 0.229 nM.
The corresponding values for `CC[C@H](C)[C@H](NC(=O)[C@H](CCCCN)NC(=O)[C@H](CC(=O)O)NC(=O)[C@H](CC(C)C)NC(=O)[C@H](CC(C)C)NC(=O)[C@@H](NC(=O)[C@H](CO)NC(=O)[C@H](Cc1ccc(O)cc1)NC(=O)[C@H](CC(=O)O)NC(=O)[C@H](CO)NC(=O)[C@@H](NC(=O)[C@H](Cc1ccccc1)NC(=O)[C@@H](NC(=O)CNC(=O)[C@H](CCC(=O)O)NC(=O)C(C)(C)NC(=O)[C@@H](N)Cc1ccc(O)cc1)[C@@H](C)O)[C@@H](C)O)[C@@H](C)CC)C(=O)N[C@@H](C)C(=O)N[C@@H](CCC(N)=O)C(=O)NC(C)(C)C(=O)N[C@@H](C)C(=O)N[C@@H](Cc1ccccc1)C(=O)N[C@H](C(=O)N[C@@H](CCC(=O)O)C(=O)N[C@@H](Cc1ccc(O)cc1)C(=O)N[C@@H](CC(C)C)C(=O)N[C@H](C(=O)N[C@@H](CCC(=O)O)C(=O)NCC(=O)NCC(=O)N1CCC[C@H]1C(=O)N[C@@H](CO)C(=O)N[C@@H](CCCCNC(=O)COCCOCCNC(=O)COCCOCCNC(=O)CC[C@H](NC(=O)CCCCCCCCCCCCCCCCCCC(=O)O)C(=O)O)C(=O)NCC(=O)N[C@@H](C)C(=O)N1CCC[C@H]1C(=O)N1CCC[C@H]1C(=O)N1CCC[C@H]1C(=O)N[C@@H](CO)C(N)=O)[C@@H](C)CC)[C@@H](C)CC` [Example 42] (H-Y[Aib]EGTFTSDYSILLDKIAQ[Aib]AFIEYLIEGGPSK([AEEA-AEEA-γGlu-C20 diacid])GAPPPS-NH2) are 160 nM, 0.0514 nM, 13.2 nM, 1.45 nM and 0.161 nM.
Take `CC[C@H](C)[C@H](NC(=O)[C@H](CCCCN)NC(=O)[C@H](CC(=O)O)NC(=O)[C@H](CC(C)C)NC(=O)[C@H](CC(C)C)NC(=O)[C@@H](NC(=O)[C@H](CO)NC(=O)[C@H](Cc1ccc(O)cc1)NC(=O)[C@H](CC(=O)O)NC(=O)[C@H](CO)NC(=O)[C@@H](NC(=O)[C@H](Cc1ccccc1)NC(=O)[C@@H](NC(=O)CNC(=O)[C@H](CCC(=O)O)NC(=O)C(C)(C)NC(=O)[C@@H](N)Cc1ccc(O)cc1)[C@@H](C)O)[C@@H](C)O)[C@@H](C)CC)C(=O)N[C@@H](C)C(=O)N[C@@H](CCC(N)=O)C(=O)NC(C)(C)C(=O)N[C@@H](C)C(=O)N[C@@H](Cc1ccccc1)C(=O)N[C@H](C(=O)N[C@@H](CCC(=O)O)C(=O)N[C@@H](Cc1ccc(O)cc1)C(=O)N[C@@H](CC(C)C)C(=O)N[C@H](C(=O)N[C@@H](CCC(=O)O)C(=O)NCC(=O)NCC(=O)N1CCC[C@H]1C(=O)N[C@@H](CO)C(=O)N[C@@H](CO)C(=O)N[C@@H](CCCCNC(=O)COCCOCCNC(=O)COCCOCCNC(=O)CC[C@H](NC(=O)CCCCCCCCCCCCCCCCCCC(=O)O)C(=O)O)C(=O)N[C@@H](C)C(=O)N1CCC[C@H]1C(=O)N1CCC[C@H]1C(=O)N1CCC[C@H]1C(=O)N[C@@H](CO)C(N)=O)[C@@H](C)CC)[C@@H](C)CC` [Example 43] (H-Y[Aib]EGTFTSDYSILLDKIAQ[Aib]AFIEYLIEGGPSSK([AEEA-AEEA-γGlu-C20 diacid])APPPS-NH2; N-terminus assumed): the results for the Ki in test [1], in test [2] and in test [5] were 134 nM, 0.101 nM and 11.8 nM, respectively. Also, the EC50 is 0.862 nM in test [3] and 0.112 nM in test [4].
